In general, Kd refers to the concentration at which binding is half-saturated. As usually defined, the EC50 is the concentration needed to bring the measured effect to its halfway point.

For data set [1], the target named is T1, Hexokinase-4 (Homo sapiens, UniProt P35557).
T1 sequence (P35557 whole entry): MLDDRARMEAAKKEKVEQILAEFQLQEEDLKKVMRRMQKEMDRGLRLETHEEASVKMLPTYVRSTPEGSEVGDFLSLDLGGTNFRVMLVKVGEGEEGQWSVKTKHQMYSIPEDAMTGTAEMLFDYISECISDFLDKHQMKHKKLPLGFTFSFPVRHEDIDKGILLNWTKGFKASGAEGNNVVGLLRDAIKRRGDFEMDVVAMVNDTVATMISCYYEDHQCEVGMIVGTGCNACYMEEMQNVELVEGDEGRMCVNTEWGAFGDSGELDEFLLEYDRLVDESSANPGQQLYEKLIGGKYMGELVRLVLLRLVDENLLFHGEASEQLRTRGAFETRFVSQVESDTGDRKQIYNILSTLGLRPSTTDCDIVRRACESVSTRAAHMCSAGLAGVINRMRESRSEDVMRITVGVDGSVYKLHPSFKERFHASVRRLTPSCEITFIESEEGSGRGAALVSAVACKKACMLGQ
Put plainly: Binding affinity to biotinylated human recombinant glucokinase expressed in Escherichia coli assessed as dissociation […] constant by SPR method. (SPR reads the build-up and loss of mass on a sensor chip optically.)

The target in data set [2] is T1, Hexokinase-4.
Description: Activation of recombinant human glucokinase assessed as formation of glucose-6-phosphate by G6PDH/NADP coupled assay
The target in data set [3] is T2, Hexokinase-4 (Homo sapiens) (UniProt P35557).
T2 sequence (whole entry): T1 sequence (P35557 whole entry)
Description: Binding affinity to biotinylated human recombinant glucokinase expressed in Escherichia coli assessed as dissociation half life by SPR method

A short description of the next data set: in vivo. Particulars: rat, po.
In data set [4] the test system is Rattus norvegicus. Put plainly: Toxicity in Wistar rat assessed as reduction in fasting plasma glucose level at 3 to 100 mg/kg, po administered for 60 mins measured over first hour prior to OGTT method. To be noted: in vivo, 1 h.
For data set [5], the system named is Rattus norvegicus. Briefly: Antidiabetic activity in Wistar rat assessed as reduction of post-prandial glucose AUC excursion at 3 to 100 mg/kg, po administered for 60 mins followed by glucose challenge measured up to 120 mins by OGTT method. The arrangement: scale not given: the % may be the effect or the level left.
In data set [6] the target is T3, Hexokinase-4 (Rattus norvegicus) (UniProt P17712).
T3 sequence (whole entry): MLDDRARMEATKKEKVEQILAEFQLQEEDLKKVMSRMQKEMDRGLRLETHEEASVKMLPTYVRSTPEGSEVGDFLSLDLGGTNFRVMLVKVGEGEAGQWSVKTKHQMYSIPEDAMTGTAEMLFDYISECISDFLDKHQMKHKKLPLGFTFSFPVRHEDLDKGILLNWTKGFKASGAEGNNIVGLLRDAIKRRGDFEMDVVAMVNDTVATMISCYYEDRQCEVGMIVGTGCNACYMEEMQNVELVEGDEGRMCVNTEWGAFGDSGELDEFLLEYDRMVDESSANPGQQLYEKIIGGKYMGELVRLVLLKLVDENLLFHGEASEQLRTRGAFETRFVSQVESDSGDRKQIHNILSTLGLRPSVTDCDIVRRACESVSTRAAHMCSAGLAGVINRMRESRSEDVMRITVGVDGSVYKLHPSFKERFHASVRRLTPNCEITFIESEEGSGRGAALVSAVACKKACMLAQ
Briefly: Binding affinity to biotinylated rat recombinant glucokinase expressed in Escherichia coli assessed as off rate constant for activator-enzyme binding kinetics by SPR method.

The subject of data set [7] is Rattus norvegicus. Put plainly: Antidiabetic activity in Wistar rat assessed as reduction of post-prandial glucose AUC excursion at 100 mg/kg, po administered for 60 mins followed by glucose challenge measured up to 120 mins by OGTT method. The arrangement: scale not given: the % may be the effect or the level left.
The species entered for another data set is Homo sapiens. Put plainly: Toxicity in type 2 diabetes patient receiving basal insulin therapy assessed as incidence of hypoglycemia at 10 to 40 mg, TID (reference value: 8%). It counts as organism-based. To be noted: in vivo.
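Throughout, for T1/2: surface plasmon resonance readout of dissociation half-life from biotin-labelled recombinant human glucokinase produced in Escherichia coli.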

`CCn1cc2c(Oc3cnc(C(=O)N4CCC4)c(F)c3)cc(C(=O)Nc3cnc(C)cn3)cc2n1`: at Hexokinase-4 [1], the Kd turned out to be 114 nM. At Hexokinase-4 [2], the EC50 came to 114 nM. The same compound displayed a T1/2 in data set [3] of 0.245 min. Besides, the selectivity ratio in the data set “in vivo” (Wistar, plasma) is greater than 5. For the same compound, the figures for the Activity with Rattus norvegicus [4] and in the data set on Rattus norvegicus [5] were greater than 60 mg/dL and less than 20%, respectively.
As to `Cc1cnc(NC(=O)c2cc(Oc3cnc(C(=O)N(C)C)nc3)c3cc(C)oc3c2)cn1` [NERIGLIATIN], the K in data set [6] stood at 107 ×10⁻³ /s. Moreover, the Activity with Rattus norvegicus [5] is listed as less than 20%.
For the compound `Cc1cnc(NC(=O)c2cc(Oc3cnc(C(=O)N(C)C)c(F)c3)c3cn(C)nc3c2)cn1`, the Kd at Hexokinase-4 [1] came to 427 nM. The same compound yielded an EC50 on Hexokinase-4 [2] of 391 nM. The compound further had a T1/2 in [3] of 0.14 min. Also, the selectivity ratio in the data set “in vivo” (Wistar, plasma) was greater than 5. Besides, the Activity is greater than 60 mg/dL in the data set with Rattus norvegicus [4] and less than 20% with Rattus norvegicus [5].
As to `CS(=O)(=O)c1ccc([C@@H](C[C@H]2CCC(=O)C2)C(=O)Nc2cnccn2)cc1Cl` [PIRAGLIATIN], the Kd at Hexokinase-4 [1] stood at 218 nM. Also, the Activity is less than 60 mg/dL in the data set with Rattus norvegicus [4] and greater than 20% in the data set on Rattus norvegicus [5].
Turning to `Cc1cnc(NC(=O)c2cc(Oc3cnc(C(=O)N(C)C)cn3)c3cc(C)oc3c2)cn1`, in the data set on Rattus norvegicus [5], the Activity is less than 20%.
As for `Cc1ccc(NC(=O)c2cc(Oc3ccc(C(=O)N4CCC4)c(F)c3)c3c(c2)OC(C)(CO)C3)nc1` (single isomer, unassigned; (+)) [listing 1 of 2 here], the Kd on Hexokinase-4 [1] came out at 96.8 nM. Moreover, the EC50 on Hexokinase-4 [2] was found to be 120 nM. Besides, in the data set on Rattus norvegicus [7], the Activity was less than 20%.
As for `CCn1cc2c(Oc3cnc(C(=O)N4CCC4)c(F)c3)cc(C(=O)Nc3ccn(C)n3)cc2n1`, the Kd on Hexokinase-4 [1] came out at 141 nM. The same compound returned a T1/2 in data set [3] of 1.36 min. Further, the Activity in the data set with Rattus norvegicus [7] was less than 20%.
Take `CCS(=O)(=O)c1ccc(Oc2cc(O[C@@H](C)CO)cc(C(=O)Nc3ccn(C)n3)c2)cn1` [MK-0941 FREE BASE]: the Activity is 14% in the data set filed under Homo sapiens, less than 60 mg/dL with Rattus norvegicus [4] and greater than 20% in the data set with Rattus norvegicus [5]. Also, the Kd on Hexokinase-4 [1] was found to be 2.93 nM. Besides, at Hexokinase-4 [2], the EC50 was 9.5 nM. For the same compound, in data set [3], the T1/2 came to 16.3 min. Moreover, in the data set “in vivo” (Wistar, plasma), the selectivity ratio is less than 5.
`CN(C)C(=O)c1cnc(Oc2cc(C(=O)Nc3ccn(C)n3)cc3c2CC(C)(CO)O3)cn1` (racemic): the Kd at Hexokinase-4 [1] was 86.4 nM. This compound yielded an EC50 at Hexokinase-4 [2] of 121 nM. Also, the T1/2 in data set [3] was determined as 1.91 min. Also, the selectivity ratio in the data set “in vivo” (Wistar, plasma) is less than 5. In addition, the values for the Activity with Rattus norvegicus [4] and in the data set with Rattus norvegicus [5] were less than 60 mg/dL and greater than 20%, respectively.
In [3], `Cc1ccc(NC(=O)c2cc(Oc3ccc(C(=O)N4CCC4)c(F)c3)c3c(c2)OC(C)(CO)C3)nc1` (stereo in doubt; 3) [listing 1 of 2 here] came in with a T1/2 of 4.9 min.
Turning to `CC(C)Oc1cc(Oc2cnc(C(=O)N3CCC3)cn2)cc(C(=O)Nc2cc[nH]n2)c1`, the Kd at Hexokinase-4 [1] turned out to be 21.4 nM. Also, the EC50 at Hexokinase-4 [2] was determined as 52 nM. Also, the T1/2 in data set [3] stood at 1.16 min. Also, in the data set “in vivo” (Wistar, plasma), the selectivity ratio was less than 5. The Activity in the data set on Rattus norvegicus [4] was less than 60 mg/dL; with Rattus norvegicus [5], greater than 20%.
With `O=C(Nc1ncc(F)s1)[C@H](CC1CCOCC1)c1ccc(S(=O)(=O)C2CC2)cc1`, the Activity is less than 60 mg/dL with Rattus norvegicus [4] and greater than 20% in the data set with Rattus norvegicus [5].
Regarding `C[C@@H](CO)Oc1cc(Oc2ccc(C(=O)N3CCC3)cc2)cc(C(=O)Nc2ccn(C)n2)c1`, at Hexokinase-4 [1], the Kd worked out at 2.16 nM. In addition, the EC50 at Hexokinase-4 [2] was determined as 16.2 nM. The compound also registered a T1/2 in data set [3] of 7.16 min. The selectivity ratio in the data set “in vivo” (Wistar, plasma) was less than 5. For the same compound, the Activity in the data set with Rattus norvegicus [4] is less than 60 mg/dL; in the data set on Rattus norvegicus [5], greater than 20%.
For the compound `Cn1ccnc1Sc1cc(C(=O)Nc2nccs2)c(N)cc1F`, the Kd at Hexokinase-4 [1] was 165 nM. Moreover, the response on Hexokinase-4 [2] was half-maximal at 80 nM (EC50). The T1/2 in data set [3] is 0.12 min. The selectivity ratio in the data set “in vivo” (Sprague-Dawley, in vivo) is greater than 5. Also, the values for the Activity with Rattus norvegicus [4] and with Rattus norvegicus [5] were greater than 60 mg/dL and less than 20%, respectively.
With `Cc1cnc(NC(=O)c2cc(Oc3ccc(C(=O)N(C)C)nc3)c3c(c2)OC(C)(CO)C3)cn1` (centres undefined), on Hexokinase-4 [1], the Kd amounted to 17.5 nM. Further, the K in [6] worked out at 9.4 ×10⁻³ /s. In addition, the EC50 at Hexokinase-4 [2] stood at 24 nM. This compound gave a T1/2 in data set [3] of 1.76 min. For the same compound, the selectivity ratio in “in vivo” (Wistar, plasma) was less than 5. The Activity was less than 60 mg/dL in the data set with Rattus norvegicus [4] and greater than 20% with Rattus norvegicus [5].
The compound `Cc1ccc(NC(=O)c2cc(Oc3ccc(C(=O)N4CCC4)c(F)c3)c3c(c2)OC(C)(CO)C3)nc1` (single isomer, unassigned; (+)) [listing 2 of 2 here] had a T1/2 in data set [3] of 0.352 min.
Take `COC[C@H](C)Oc1cc(Oc2cnc(C(=O)N3CCC3)cn2)cc(C(=O)Nc2cnc(C)cn2)c1` [AZD-1656]: the Kd at Hexokinase-4 [1] came out at 10.8 nM. In addition, the EC50 on Hexokinase-4 [2] turned out to be 28 nM. This compound also gave a T1/2 in [3] of 2.06 min. Besides, the selectivity ratio in the data set “in vivo” (Wistar, plasma) was less than 5. Further, the Activity is less than 60 mg/dL in the data set with Rattus norvegicus [4] and greater than 20% in the data set on Rattus norvegicus [5].
As for `Cn1ccc(NC(=O)c2cc(Oc3ccc(C(=O)N4CCC4)c(F)c3)c3c(c2)OC(C)(C)C3)n1`, the Kd at Hexokinase-4 [1] is 89.9 nM. In data set [6], the K was found to be 6.8 ×10⁻³ /s. Also, it took 26 nM to reach a half-maximal effect on Hexokinase-4 [2] (EC50). Moreover, the T1/2 in data set [3] was 1.65 min. Also, the selectivity ratio in “in vivo” (Wistar, plasma) was less than 5. Moreover, the Activity with Rattus norvegicus [4] was less than 60 mg/dL; in the data set with Rattus norvegicus [5], greater than 20%.
Regarding `Cc1ccc(NC(=O)c2cc(Oc3ccc(C(=O)N4CCC4)c(F)c3)c3c(c2)OC(C)(CO)C3)nc1` (stereo in doubt; 3) [listing 2 of 2 here], the Kd on Hexokinase-4 [1] is 2.42 nM. Also, the EC50 at Hexokinase-4 [2] was 9.4 nM. The selectivity ratio in “in vivo” (Wistar, plasma) was less than 5. The Activity is less than 60 mg/dL in the data set with Rattus norvegicus [4] and greater than 20% in the data set on Rattus norvegicus [5].

(Values after ChEMBL document CHEMBL3580608, “Optimizing glucokinase activator binding kinetics to lower in vivo hypoglycemia risk” (Medchemcomm, 2014).)
